Source: BigSolDB 2.1

NC(=O)OCCCc1ccccc1
solubility (mole fraction)
Settings | 283.15 K | 288.15 K | 293.15 K | 298.15 K | 303.15 K | 308.15 K | 313.15 K | 318.15 K | 323.15 K
in 2-butanone | 0.0601 | 0.0718 | 0.0829 | 0.0993 | 0.117 | 0.131 | 0.147 | 0.164 | 0.187
in acetone | 0.0652 | 0.0775 | 0.0939 | 0.107 | 0.12 | 0.137 | 0.158 | 0.179 | 0.202
in ethanol | 0.0156 | 0.0178 | 0.0239 | 0.0307 | 0.0392 | 0.0493 | 0.0623 | 0.0808 | 0.1
in ethyl acetate | 0.0493 | 0.0567 | 0.0687 | 0.0803 | 0.0929 | 0.104 | 0.117 | 0.13 | 0.144
in isopropanol | 0.0108 | 0.0149 | 0.0207 | 0.0261 | 0.0339 | 0.0439 | 0.0587 | 0.0769 | 0.0904
in methanol | 0.0202 | 0.0247 | 0.0321 | 0.0396 | 0.0492 | 0.0614 | 0.0752 | 0.1 | 0.118
in methyl acetate | 0.0494 | 0.059 | 0.0719 | 0.0862 | 0.101 | 0.119 | 0.139 | 0.161 | 0.186
in n-butanol | 0.00704 | 0.012 | 0.0198 | 0.0279 | 0.0391 | 0.0492 | 0.0663 | 0.0824 | 0.0972
in n-pentanol | 0.0174 | 0.02 | 0.0239 | 0.031 | 0.0404 | 0.0523 | 0.0668 | 0.081 | 0.0946
in n-propanol | 0.0127 | 0.0155 | 0.0219 | 0.028 | 0.0349 | 0.045 | 0.0589 | 0.0771 | 0.0989
in sec-butanol | 0.0138 | 0.017 | 0.0226 | 0.0299 | 0.0405 | 0.0515 | 0.0679 | 0.092 | 0.118
in water | 8.1e-06 | 1.5e-05 | 3.19e-05 | 5.99e-05 | 0.000107 | 0.000165 | 0.000229 | 0.000293 | 0.000378
